Patent publication US20230048901A1, “SOLID ORAL FORMULATION OF UTIDELONE” (Beijing Biostar Pharmaceuticals Co., Ltd., priority 2020, published 2023)

Assay: Solubility of Utidelone in water and organic solvents
Assay type: physicochemical
Protocol: The saturated solubility in water is less than 1 μg/ml, so it is difficult to develop into an oral formulation with suitable bioavailability. At present, the marketed epothilone antitumor drugs such as Utidelone injection and Ixabepilone injection etc., all of which use non-aqueous solvents such as ethanol and polyoxyl castor oil as solvents, are diluted with sodium chloride injection for administration by intravenous infusion. Since polyoxyl castor oil is a strong allergenic substance, antiallergic treatment must be given before intravenous administration, which reduces the compliance of this type of drug in clinical use, increases the adverse reactions of patients, and limits its clinical application.

SMILES: C/C1=C/CC(/C(C)=C/c2csc(C)n2)OC(=O)C[C@H](O)C(C)(C)C(=O)[C@H](C)[C@@H](O)[C@@H](C)CCC1 (stereo partly drawn) [Utidelone, 4,8-dihydroxy-5,5,7,9,13-pentamethyl-16-[1-methyl-2-(2-methyl-thiazole-4-yl)-vinyl]-hexadecoxetane-13-en-2,6-one lactone]
- solubility in organic solvents (ethanol, methanol, ethyl acetate, chloroform): easily soluble
- solubility in water (water): insoluble in water
- solubility (water, read-out: saturated solubility in water): < 1 µg/mL
